Measurements published in publication PMC12979188, “Systematic analyses of lipid mobilization by human lipid transfer proteins” (Nature, 2026).

Experiments:
RBP4 = RBP4 (Homo sapiens, UniProt P02753); assay: affinity purification, SEC and mass spectrometry lipidomics; assay type: cell-based; conditions: in cellulo, HEK293; retinoid form not specified beyond vitamin A
RBP1 = target: T1, RBP1 (Homo sapiens, UniProt P09455); assay: as above; assay type: cell-based; conditions: in cellulo, HEK293; retinoid form not specified beyond vitamin A
T1 sequence (P09455 1-135): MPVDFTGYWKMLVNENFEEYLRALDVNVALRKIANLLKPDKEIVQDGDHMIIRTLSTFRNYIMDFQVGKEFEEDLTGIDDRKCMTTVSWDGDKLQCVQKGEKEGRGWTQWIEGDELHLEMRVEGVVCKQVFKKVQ

SMILES: CC1=C(/C=C/C(C)=C/C=C/C(C)=C/CO)C(C)(C)CCC1 [vitamin A]
- affinity purification, SEC and mass spectrometry lipidomics (RBP4): RBP1 and RBP4 formed complexes with vitamin A only in the cellular context
- affinity purification, SEC and mass spectrometry lipidomics (RBP1): RBP1 and RBP4 formed complexes with vitamin A only in the cellular context
